Laboratory results reported in patent publication US20240018102A1, “COMPOUNDS AND COMPOSITIONS FOR TREATING CONDITIONS ASSOCIATED WITH LPA RECEPTOR ACTIVITY” (Lhotse Bio, Inc., priority 2020, published 2024).

Target: T1, human LPA1 (Homo sapiens, UniProt Q92633)
T1 construct: expressed in transfected cells; host or cells: CHO-K1
Experiment: In vitro LPA1 functional antagonist assay (calcium mobilization, FLIPR)
Assay type: cell-based
Settings: CHO-K1 cells overexpressing human LPA1; Oleoyl LPA challenge; calcium mobilization on FLIPR Tetra
Description: In Vitro LPA1 Functional Antagonist Assay
CHO-K1 cells overexpressing human LPA1 were seeded in a total volume of 20 μL into black-walled, clear-bottom, Poly-D-lysine coated 384-well microplates and incubated at 37° C. for the appropriate time prior to testing. Assays were performed in 1× Dye Loading Buffer consisting of 1× Dye, 1× Additive A and 2.5 mM Probenecid in HBSS/20 mM Hepes. Probenicid was prepared fresh. Cells were loaded with dye prior to testing. Media was aspirated from cells and replaced with […] Dye Loading Buffer. Cells were incubated for 30-60 minutes at 37° C. After dye loading, cells were removed from the incubator and 10 μL 3× test compound was added. Cells were incubated for 30 minutes at room temperature in the dark to equilibrate plate temperature followed by Oleoyl LPA challenge at the 0.018 M. Compound antagonist activity was measured on a FLIPR Tetra (MDS). Calcium mobilization was monitored for 2 minutes and 10 μL Oleoyl LPA in HBSS/20 mM Hepes was added to the cells 5 seconds into the assay. Compound activity was analyzed using CBIS data analysis suite (ChemInnovation, CA). Percentage inhibition is calculated using the following formula:
% Inhibition=100%×(1−(mean RFU of test sample−mean RFU of vehicle control)/(mean RFU of LPA control−mean RFU of vehicle control)).

T1 sequence (Q92633 whole entry): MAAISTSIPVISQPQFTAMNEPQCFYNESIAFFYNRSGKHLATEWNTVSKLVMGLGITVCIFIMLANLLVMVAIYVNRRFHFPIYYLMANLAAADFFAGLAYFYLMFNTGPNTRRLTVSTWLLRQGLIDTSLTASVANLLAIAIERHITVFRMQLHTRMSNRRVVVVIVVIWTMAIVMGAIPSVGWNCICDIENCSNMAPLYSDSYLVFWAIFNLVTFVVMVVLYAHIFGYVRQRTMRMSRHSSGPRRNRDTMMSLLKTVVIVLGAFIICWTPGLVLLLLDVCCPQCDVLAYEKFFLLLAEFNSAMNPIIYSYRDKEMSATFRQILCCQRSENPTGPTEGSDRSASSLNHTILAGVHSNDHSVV

Row | SMILES | IC50 [nM]
1 | COc1cc([C@@H](O)[C@H](Cc2nc3cc(C(=O)O)ccc3[nH]2)OC2Cc3ccccc3C2)cc(OC)c1C [Compound 114a, 2-((2S, 3R)-2-((2,3-dihydro-1H-inden-2-yl)oxy)-3-(3,5-dimethoxy-4-methylphenyl)-3-hydroxypropyl)-1H-benzo[d]imidazole-5-carboxylic acid] | 125
2 | COc1cc([C@@H](O)[C@H](Cc2nc(CC(=O)O)cs2)OCC2CCC2)cc(OC)c1C [Compound 122a] | 1450
3 | COc1cc([C@@H](O)[C@H](Cc2nc3cc(CC(=O)O)ccc3[nH]2)OC2Cc3ccccc3C2)cc(OC)c1C [Compound 115a, 2-[2-[(2S,3R)-3-(3,5-dimethoxy-4-methyl-phenyl)-3-hydroxy-2-indan-2-yloxy-propyl]-1H-benzimidazol-5-yl]acetic acid] | 30.8
4 | COc1cc([C@@H](O)[C@H](Cn2cc3cccc(C(=O)O)c3n2)OC2CCCC2)ccc1Cl [Compound 126a, 2-((2S,3R)-3-(4-chloro-3-methoxyphenyl)-2-(cyclopentyloxy)-3-hydroxypropyl)-2H-indazole-7-carboxylic acid] | 64.8
5 | O=C(O)c1cccc2cn(C[C@H](OC3CCCC3)[C@H](O)c3ccc(C(F)(F)F)cc3)nc12 [Compound 124a] | 5700
6 | COc1cc([C@@H](O)[C@H](Cn2cc3cccc(C(=O)O)c3n2)OC2CCCC2)ccc1C(F)F [Compound 121a] | 11.2
7 | COc1cc([C@H](O)[C@H](Cn2cc3cccc(C(=O)O)c3n2)OC2CCCC2)ccc1F [Compound 138] | > 10000
8 | COc1cc([C@@H](O)[C@H](Cn2cc3cccc(C(=O)O)c3n2)OC2CCCC2)ccc1F [Compound 139] | 1350
9 | COc1cc([C@@H](O)[C@H](Cc2ccc(CC(=O)O)c(OC)n2)OC2CCCC2)cc(OC)c1C [Compound 110a, 2-(6-((2S,3R)-2-(cyclopentyloxy)-3-(3,5-dimethoxy-4-methylphenyl)-3-hydroxypropyl)-2-methoxypyridin-3-yl)acetic acid] | 1650
10 | COc1cc([C@@H](O)[C@H](Cn2cc3cccc(C(=O)O)c3n2)OC2CCCC2)ccc1C1CC1 [Compound 125a] | 80.7
11 | COc1cc([C@@H](O)[C@H](Cn2cc3cc(Cl)cc(C(=O)O)c3n2)OC2CCCC2)cc(OC)c1C [Compound 144] | 2.04
12 | COc1cc([C@@H](O)[C@H](Cc2nc3cc(C(=O)O)ccc3n2C)OCC2CCC2)cc(OC)c1C [Compound 119a, 2-[(2S,3R)-2-(cyclobutylmethoxy)-3-(3,5-dimethoxy-4-methyl-phenyl)-3-hydroxy-propyl]-1-methyl-benzimidazole-5-carboxylic acid] | > 10000
13 | COc1cc([C@@H](O)[C@H](Cn2cc3cccc(C(=O)O)c3n2)OCC2CCC2)cc(OC)c1C [Compound 118a, 2-((2S,3R)-2-(cyclobutylmethoxy)-3-(3,5-dimethoxy-4-methylphenyl)-3-hydroxypropyl)-2H-indazole-7-carboxylic acid] | 26.6
14 | CCOC(=O)c1cn(C[C@H](OC2CCCC2)[C@H](O)c2cc(OC)c(C)c(OC)c2)cc1CC(=O)O [Compound 143] | 7.66
15 | COc1cc([C@@H](O)[C@H](Cc2nc(CC(=O)O)cs2)OC2Cc3ccccc3C2)cc(OC)c1C [Compound 129a, 2-(2-((2S,3R)-2-((2,3-dihydro-1H-inden-2-yl)oxy)-3-(3,5-dimethoxy-4-methylphenyl)-3-hydroxypropyl)thiazol-4-yl)acetic acid] | 3.38
16 | COC(=O)c1cn(C[C@H](OC2CCCC2)[C@H](O)c2cc(OC)c(C)c(OC)c2)cc1CC(=O)O [Compound 102a, 2-(1-((2S,3R)-2-(cyclopentyloxy)-3-(3,5-dimethoxy-4-methylphenyl)-3-hydroxypropyl)-4-(methoxycarbonyl)-1H-pyrrol-3-yl)acetic acid] | 14.5
17 | COC(=O)c1cn(C[C@H](OCCc2ccccc2)[C@H](O)c2cc(OC)c(C)c(OC)c2)cc1CC(=O)O [Compound 104a, 2-(1-((2S,3R)-3-(3,5-dimethoxy-4-methylphenyl)-3-hydroxy-2-phenethoxypropyl)-4-(methoxycarbonyl)-1H-pyrrol-3-yl)acetic acid] | 5.24
18 | COc1cc([C@@H](O)C(Cn2cc3cccc(C(=O)O)c3n2)OCCc2ccccc2)cc(OC)c1C (stereo in doubt) [Compound 105a, 2-((2R,3R)-3-(3,5-dimethoxy-4-methylphenyl)-3-hydroxy-2-phenethoxypropyl)-2H-indazole-7-carboxylic acid] | 3.35
19 | COc1cc([C@@H](O)[C@H](Cc2ccn(CC(=O)O)n2)OC2CCCC2)cc(OC)c1C [Compound 116a] | 1470
20 | COc1cc([C@@H](O)[C@H](Cc2nc3cc(CC(=O)O)ccc3[nH]2)OC2CCCC2)cc(OC)c1C [Compound 111a, 2-(2-((2S,3R)-2-(cyclopentyloxy)-3-(3,5-dimethoxy-4-methylphenyl)-3-hydroxypropyl)-1H-benzo[d]imidazol-5-yl)acetic acid] | > 10000
21 | COc1cc([C@@H](O)[C@H](Cn2cc3cccc(C(=O)O)c3n2)OC2CCCC2)cc(OC)c1C [Compound 108a, 2-((2S,3R)-2-(cyclopentyloxy)-3-(3,5-dimethoxy-4-methylphenyl)-3-hydroxypropyl)-2H-indazole-7-carboxylic acid] | 3.05
22 | O=C(O)c1cccc2cn(C[C@H](OC3CCCC3)[C@H](O)c3ccc(C(F)F)cc3)nc12 [Compound 128a] | 207
23 | COc1cc(C(O)C(Cn2ncc3cccc(C(=O)O)c32)OCCc2ccccc2)cc(OC)c1C (centres unmarked) [Compound 107, 1-(3-(3,5-dimethoxy-4-methylphenyl)-3-hydroxy-2-phenethoxypropyl)-1H-indazole-7-carboxylic acid] | > 10000
